Measured values as given in patent US11246922B1, “Vaccine RNA-peptide against SARS-CoV-2 with endogenous exosomes as carrier” (Elidan America, LLC., priority 2021, dated 2022).
Converted amounts (≈) assume the structure as drawn. Ends that are not written are not given here.

What was measured:
in vitro [1] = conditions: human, HEK293 cells
in vitro [2] = conditions: human, WM-266 cells

Compound	CC50 (BEAS-2B cell line)	CC50 (HUVEC cell line)	CC50 (HMEC-1 cell line)	CC50 (HEK293 cell line)	CC50 (WM-266 cell line)	LC100 (BEAS-2B cell line)	LC100 (HUVEC cell line)	LC100 (HMEC-1 cell line)	LC100 (HEK293 cell line)	LC100 (WM-266 cell line)	CC50 (in vitro [1])	CC50 (in vitro [2])
CCCCCCCCCCCCCC(=O)O[C@@H]1[C@@H](C)[C@@]2(O)[C@@H](C=C(CO)C[C@]3(O)C(=O)C(C)=C[C@@H]23)[C@@H]2C(C)(C)[C@]12OC(C)=O [PMA, Phorbol 12-myristate 13-acetate, reference compound]	297 µg/mL (≈ 481 µM)	272 µg/mL (≈ 441 µM)	291 µg/mL (≈ 472 µM)	275 µg/mL (≈ 446 µM)	310 µg/mL (≈ 503 µM)							
CVNDTFAGSTFISDEVD [Peptide-A]						447	445	452	450	445 µg/µL		
CVNDTFAGSTFISDEVDGVDEVAKKKSK [Peptide-AB]						444	456	450	7	444 µg/µL	6 µg/mL	36 µg/mL
GVDEVAKKKSK [Peptide-B]										445 µg/µL		
Phosphate-buffered saline [PBS]						616	612	580	539	587 µg/µL		
